Experimental data: patent US20240400542A1 (University of Virginia Patent Foundation, priority 2021, published 2024)

Columns and labels:
Assay in all cases: SILAC competitive chemical proteomic assay (TH211 probe, LC-MS/MS)
PFKL = target: T1, PFKL (Homo sapiens, UniProt P17858); assay type: cell-based
T1 construct: endogenous in cells; host or cells: HEK293T
T1 sequence (P17858 1-780): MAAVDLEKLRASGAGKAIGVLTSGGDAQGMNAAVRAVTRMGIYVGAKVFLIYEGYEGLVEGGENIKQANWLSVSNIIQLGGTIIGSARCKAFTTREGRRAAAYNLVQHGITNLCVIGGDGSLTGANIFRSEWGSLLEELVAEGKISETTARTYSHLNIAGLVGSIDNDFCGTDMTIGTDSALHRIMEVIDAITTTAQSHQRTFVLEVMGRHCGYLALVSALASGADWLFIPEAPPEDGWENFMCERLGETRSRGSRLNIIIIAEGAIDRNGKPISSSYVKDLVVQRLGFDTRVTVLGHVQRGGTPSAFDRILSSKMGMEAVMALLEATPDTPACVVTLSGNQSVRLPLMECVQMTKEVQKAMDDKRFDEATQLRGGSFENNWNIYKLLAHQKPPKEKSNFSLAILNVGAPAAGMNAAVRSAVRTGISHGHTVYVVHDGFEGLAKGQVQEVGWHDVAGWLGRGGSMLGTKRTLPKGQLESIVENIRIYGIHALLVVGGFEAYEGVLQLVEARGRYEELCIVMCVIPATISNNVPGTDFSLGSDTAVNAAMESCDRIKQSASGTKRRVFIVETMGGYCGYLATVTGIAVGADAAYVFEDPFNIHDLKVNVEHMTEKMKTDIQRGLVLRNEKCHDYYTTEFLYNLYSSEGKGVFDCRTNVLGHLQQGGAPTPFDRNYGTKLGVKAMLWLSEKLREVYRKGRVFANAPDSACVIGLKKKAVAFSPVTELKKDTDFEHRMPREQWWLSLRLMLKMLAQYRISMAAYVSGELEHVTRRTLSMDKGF
Description: (§1) The light and heavy proteomes (2.3 mg/mL, 432 μL) prepared from HEK293T cells that were pretreated in situ with vehicle (DMSO) or the inhibitor (2 μM), respectively, at 37° C. for 1 hr followed by probe TH211 treatment (50 μM) for 2 h, were directly were subjected to click reaction with the desthiobiotin-PEG3-azide (10 mM in DMSO, 10 μL, final concentration 200 μM) in the presence of TCEP (50 mM, 10 μL), TBTA (1.7 mM, 33 μL) and CuSO4 (50 mM, 10 μL) at room temperature for 1 hr. The light and the heavy samples were mixed in the chloroform-methanol extraction step. The subsequent steps including reduction with dithiothreitol, alkylation with iodoacetamide, digestion with Trypsin/Lys-C, enrichment with avidin beads were conducted as previously described^26.
Some SuTEx analogues with RF001 fragment were synthesized and characterized. The in situ competition assay was then conducted, during which HEK293T cells were treated with 1 μM of a SuTEx analogue for 1 h, followed by treatment with 25 μM of TH211 as the probe for 2 h. […] The analogues with electron-donating groups like methyl or methoxy on the para position of phenyl performed better than those with electron-withdrawing groups. Under the same condition, the IC5o of TH220 was determined as 305.6 nM. The identity of the bound protein was studied by LC-MS/MS. The assay results indicated PFKL as the potential target and that binding sites include Y674 and K677, since the ratio trends are the same as that found in the in situ competition assay. To study selective targeting of PFKL by the series of SuTEx analogues, Fag-PFKL, Flag-PFKM, and Flag-PFKP were overexpressed in HEK293T cells and in vitro competition assays were performed for comparison. […] To optimize these SuTEx ligands, another series of derivatives were synthesized and evaluated with TH233 as a negative control and TH220 as positive control, respectively. […] Compared to TH220, the probinding activity of XJ-2-103 with trifluoromethyl group at para position of the phenyl ring is not as good, which is consistent with the results shown in FIG. 18A.

[1] = system: Heat shock protein HSP 90-beta; assay type: cell-based, human; conditions: TH207 inhibitor; HEK293T soluble fraction; tyrosine 61
Description: as §1

14-3-3 protein epsilon = target: T2, 14-3-3 protein epsilon (Homo sapiens, UniProt P62258); assay type: cell-based; conditions: TH207 inhibitor; HEK293T soluble fraction; P62258.1 lysine 215
T2 construct: endogenous in cells; host or cells: HEK293T
T2 sequence (P62258 1-255): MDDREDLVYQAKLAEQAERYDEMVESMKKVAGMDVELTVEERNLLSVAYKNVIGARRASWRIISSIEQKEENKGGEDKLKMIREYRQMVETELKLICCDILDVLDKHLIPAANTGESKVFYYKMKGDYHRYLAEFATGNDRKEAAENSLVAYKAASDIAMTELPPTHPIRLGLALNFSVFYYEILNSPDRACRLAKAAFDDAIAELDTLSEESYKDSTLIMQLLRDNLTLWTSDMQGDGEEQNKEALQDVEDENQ
Description: as §1

Cytochrome c = target: T3, Cytochrome c (Homo sapiens, UniProt P99999); assay type: cell-based; conditions: TH207 inhibitor, HEK293T soluble fraction
T3 construct: endogenous in cells; host or cells: HEK293T
T3 sequence (P99999 whole entry): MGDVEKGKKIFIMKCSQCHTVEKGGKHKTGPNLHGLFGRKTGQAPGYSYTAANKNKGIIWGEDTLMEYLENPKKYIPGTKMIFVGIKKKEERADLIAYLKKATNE
Description: as §1

Perilipin-2 = target: T4, Perilipin-2 (Homo sapiens, UniProt Q99541); assay type: cell-based; conditions: TH207 inhibitor; HEK293T soluble fraction; Q99541.2 tyrosine 190
T4 construct: endogenous in cells; host or cells: HEK293T
T4 sequence (Q99541 1-437): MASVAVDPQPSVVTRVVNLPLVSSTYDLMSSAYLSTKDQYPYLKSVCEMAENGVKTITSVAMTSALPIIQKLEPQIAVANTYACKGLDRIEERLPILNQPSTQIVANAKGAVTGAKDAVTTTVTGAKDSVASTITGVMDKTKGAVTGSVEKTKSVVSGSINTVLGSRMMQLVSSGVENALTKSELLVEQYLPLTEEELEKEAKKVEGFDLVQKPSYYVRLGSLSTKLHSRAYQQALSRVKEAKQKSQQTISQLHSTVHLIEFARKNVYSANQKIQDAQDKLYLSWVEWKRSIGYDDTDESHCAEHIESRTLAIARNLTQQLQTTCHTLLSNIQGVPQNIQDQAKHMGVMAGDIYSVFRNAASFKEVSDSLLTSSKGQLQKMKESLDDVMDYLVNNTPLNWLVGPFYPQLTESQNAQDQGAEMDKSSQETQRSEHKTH
Description: as §1

## Cc1ccc(S(=O)(=O)n2cc(CCN3CCC(=C(c4ccc(F)cc4)c4ccc(F)cc4)CC3)nn2)cc1 [TH207, 4-(Bis(4-fluorophenyl)methylene)-1-(2-(1-tosyl-1H-1,2,3-triazol-4-yl)ethyl)piperidine]
PFKL; HEK293T in situ, vehicle (light) vs inhibitor 2 μM (heavy) 1 hr, then TH211 50 μM 2 h, protein/site not given
  SILAC ratios (SR) from competitive chemical proteomic assay: 3.41
PFKL; TH207 inhibitor, HEK293T soluble fraction, P17858.6 lysine 677
  Normalized SILAC ratio (SR), PFKL K677: 2.7
PFKL; TH207 inhibitor, HEK293T soluble fraction, P17858.6 tyrosine 674
  Normalized SILAC ratio (SR), PFKL Y674: 2.7
[1]
  Normalized SILAC ratio (SR), Heat shock protein HSP 90-beta Y61: 1.5
14-3-3 protein epsilon
  Normalized SILAC ratio (SR), 14-3-3 protein epsilon K215: 3.7
Cytochrome c; P99999.2 lysine 28
  Normalized SILAC ratio (SR), Cytochrome c K28: 1.4
Cytochrome c; P99999.2 lysine 40
  Normalized SILAC ratio (SR), Cytochrome c K40: 1.5
Cytochrome c; P99999.2 lysine 54
  Normalized SILAC ratio (SR), Cytochrome c K54: 1.8
Cytochrome c; P99999.2 tyrosine 49
  Normalized SILAC ratio (SR), Cytochrome c Y49: 1.5
Perilipin-2
  Normalized SILAC ratio (SR), Perilipin-2 Y190: 3.5
